molecular target: c-Met (Homo sapiens, UniProt P08581); assay: Ki determination for the inhibition of c-Met (standard radiometric kinase assay); format: biochemical; settings: radiometric 33P-ATP assay, 1.0 nM c-Met, 35 μM ATP, 0.5 mg/mL polyE4Y, competitive tight-binding fit
Experimental: Ki Determination for the Inhibition of c-Met
Compounds of the invention were screened for their ability to inhibit c-Met kinase activity using a standard radiometric assay. Briefly, in this kinase assay the transfer of the terminal ^33P-phosphate in ^33P-ATP to substrate polyE4Y is interrogated. The assay was carried out in 96-well plates to a final volume of 100 μL per well containing 1.0 nM c-Met, 100 mM HEPES (pH 7.5), 10 mM MgCl2, 25 mM NaCl, 0.01% BSA, 1 mM DTT, 0.5 mg/mL polyE4Y, and 35 μM ATP. Accordingly, compounds of the invention were dissolved in DMSO to make 10 mM initial stock solutions. Serial dilutions in DMSO were then made to obtain the final solutions for the assay. A 1.5 μL aliquot of DMSO or inhibitor in DMSO was added to each well. The reaction was initiated by the addition of ^33P-ATP and polyE4Y (obtained from Sigma). After 20 min, the reaction was quenched with 50 μL of 30% trichloroacetic acid (TCA) containing 4 mM ATP. The reaction mixture was transferred to the 0.66 mm GF filter plates (Corning) and washed three times with 5% TCA. Following the addition of 50 μL of Ultimate Gold™ high efficiency scintillant (Packard Bioscience), the samples were counted in a Packard TopCount NXT Microplate Scintillation and Luminescence Counter (Packard BioScience). The Ki values were calculated using Microsoft Excel Solver macros to fit the data to the kinetic model for competitive tight-binding inhibition.

Sequence of c-Met (P08581 25-1390): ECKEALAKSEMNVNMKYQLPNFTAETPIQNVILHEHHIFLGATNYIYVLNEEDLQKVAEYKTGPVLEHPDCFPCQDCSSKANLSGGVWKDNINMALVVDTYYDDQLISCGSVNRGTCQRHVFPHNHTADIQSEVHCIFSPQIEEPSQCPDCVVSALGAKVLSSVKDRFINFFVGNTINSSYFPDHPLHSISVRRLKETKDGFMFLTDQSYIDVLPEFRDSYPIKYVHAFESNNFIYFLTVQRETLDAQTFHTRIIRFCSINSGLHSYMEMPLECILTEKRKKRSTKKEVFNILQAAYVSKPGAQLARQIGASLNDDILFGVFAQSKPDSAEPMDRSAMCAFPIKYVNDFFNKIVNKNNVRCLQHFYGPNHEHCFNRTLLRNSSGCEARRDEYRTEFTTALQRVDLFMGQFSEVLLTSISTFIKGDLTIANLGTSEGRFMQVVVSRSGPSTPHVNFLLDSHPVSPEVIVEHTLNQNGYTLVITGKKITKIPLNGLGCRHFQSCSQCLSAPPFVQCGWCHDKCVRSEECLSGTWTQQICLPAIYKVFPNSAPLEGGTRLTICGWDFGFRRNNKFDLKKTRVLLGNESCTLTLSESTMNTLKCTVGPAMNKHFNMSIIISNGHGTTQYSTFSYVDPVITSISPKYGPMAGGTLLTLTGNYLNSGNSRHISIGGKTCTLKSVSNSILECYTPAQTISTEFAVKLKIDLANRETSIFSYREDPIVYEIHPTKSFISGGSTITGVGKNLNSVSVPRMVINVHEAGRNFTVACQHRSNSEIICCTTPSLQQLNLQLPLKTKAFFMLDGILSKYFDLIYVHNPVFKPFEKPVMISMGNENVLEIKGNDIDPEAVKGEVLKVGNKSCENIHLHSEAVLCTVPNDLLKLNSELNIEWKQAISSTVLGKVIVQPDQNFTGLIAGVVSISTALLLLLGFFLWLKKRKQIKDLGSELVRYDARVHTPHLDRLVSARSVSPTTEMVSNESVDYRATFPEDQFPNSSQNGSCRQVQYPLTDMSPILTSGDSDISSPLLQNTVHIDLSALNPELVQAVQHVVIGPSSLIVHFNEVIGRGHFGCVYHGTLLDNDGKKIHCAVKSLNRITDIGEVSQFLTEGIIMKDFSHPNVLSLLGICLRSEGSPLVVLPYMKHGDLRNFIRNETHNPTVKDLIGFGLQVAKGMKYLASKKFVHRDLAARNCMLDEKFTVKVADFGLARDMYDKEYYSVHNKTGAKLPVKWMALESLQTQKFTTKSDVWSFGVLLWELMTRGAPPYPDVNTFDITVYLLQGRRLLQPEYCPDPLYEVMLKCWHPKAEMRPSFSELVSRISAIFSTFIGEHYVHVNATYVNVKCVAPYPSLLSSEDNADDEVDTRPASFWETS

Row | Compound | Ki [nM]
1 | CN(Cc1cccnc1)Cc1nnc2ccc(Nc3cccc(Cl)c3)nn12 [Compound 1] | ≤ 250
2 | Clc1cccc(Nc2ccc3nnc(COCc4cccnc4)n3n2)c1 [Compound 2, 3-(((pyridin-3-yl)methoxy)methyl)-N-(3-chlorophenyl)-[1,2,4]triazolo[4,3-b]pyridazin-6-amine] | ≤ 250
3 | Clc1cccc(Nc2ccc3nnc(CNCc4ccccn4)n3n2)c1 [Compound 3] | > 2500
4 | Clc1cccc(Nc2ccc3nnc(CNCc4cccnc4)n3n2)c1 [Compound 4] | > 2500
5 | O=C(Cc1nnc2ccc(Nc3cccc(Cl)c3)nn12)Nc1cnccn1 [Compound 5] | > 2500
6 | O=C(Cc1nnc2ccc(Nc3cccc(Cl)c3)nn12)NCc1cccnc1 [Compound 6] | > 2500
7 | CN(C(=O)Cc1nnc2ccc(Nc3cccc(Cl)c3)nn12)c1ccccn1 [Compound 7] | > 2500
8 | Nc1cccnc1NC(=O)Cc1nnc2ccc(Nc3cccc(Cl)c3)nn12 [Compound 8] | 250 to 2500
9 | C[C@@H](NC(=O)c1cccnc1)c1nnc2ccc(Nc3cccc(Cl)c3)nn12 [Compound 10] | > 2500
10 | CN(Cc1cccnc1N)Cc1nnc2ccc(Nc3cccc(Cl)c3)nn12 [Compound 11, N-(3-chlorophenyl)-3-(2-(N-((2-aminopyridin-3-yl)methyl)-N-(methyl)amino)methyl)-[1,2,4]triazolo[4,3-b]pyridazin-6-amine] | 250 to 2500
11 | CN(Cc1nnc2ccc(Nc3cccc(Cl)c3)nn12)C(=O)c1cccnc1 [Compound 12] | > 2500
12 | C[C@@H](NC(=O)c1cccnc1N)c1nnc2ccc(Nc3cccc(Cl)c3)nn12 [Compound 13] | 250 to 2500
13 | C[C@@H](NC(=O)c1nccnc1N)c1nnc2ccc(Nc3cccc(Cl)c3)nn12 [Compound 14, N—((R)-1-(6-(3-chlorophenylamino)-[1,2,4]triazolo[4,3-b]pyridazin-3-yl)ethyl)-3-aminopyrazine-2-carboxamide] | ≤ 250
14 | C[C@@H](NC(=O)Nc1cccnc1)c1nnc2ccc(Nc3cccc(Cl)c3)nn12 [Compound 15, 1-((R)-1-(6-(3-chlorophenylamino)-[1,2,4]triazolo[4,3-b]pyridazin-3-yl)ethyl)-3-(pyridin-3-yl)urea] | 250 to 2500
15 | C[C@@H](NC(=O)c1cnc2ccccc2n1)c1nnc2ccc(Nc3cccc(Cl)c3)nn12 [Compound 16] | 250 to 2500
16 | C[C@@H](NC(=O)c1cc(Br)cnc1N)c1nnc2ccc(Nc3cccc(Cl)c3)nn12 [Compound 17] | 250 to 2500
17 | C[C@@H](NC(=O)c1nc(Br)cnc1N)c1nnc2ccc(Nc3cccc(Cl)c3)nn12 [Compound 18] | 250 to 2500
18 | Clc1cccc(Nc2ccc3nnc(COCc4cnccn4)n3n2)c1 [Compound 19] | > 2500
19 | Clc1cccc(Nc2ccc3nnc(CNc4n[nH]c5ncccc45)n3n2)c1 [Compound 20] | ≤ 250
20 | C[C@@H](NC(=O)c1nc(-c2ccccc2)cnc1N)c1nnc2ccc(Nc3cccc(Cl)c3)nn12 [Compound 21] | ≤ 250
21 | CC(=O)Nc1ccc(-c2cnc(N)c(C(=O)N[C@H](C)c3nnc4ccc(Nc5cccc(Cl)c5)nn34)n2)cc1 [Compound 22] | ≤ 250
22 | C[C@@H](NC(=O)c1cc(-c2ccccc2)cnc1N)c1nnc2ccc(Nc3cccc(Cl)c3)nn12 [Compound 23] | ≤ 250
23 | CC(=O)Nc1ccc(-c2cnc(N)c(C(=O)N[C@H](C)c3nnc4ccc(Nc5cccc(Cl)c5)nn34)c2)cc1 [Compound 24] | ≤ 250
24 | CCC(C)Nc1ccc2nnc([C@@H](C)NC(=O)c3nc(-c4ccccc4)cnc3N)n2n1 (stereo partly shown) [Compound 25] | 250 to 2500
25 | CCC(C)Nc1ccc2nnc([C@@H](C)NC(=O)c3nc(-c4ccc(NC(C)=O)cc4)cnc3N)n2n1 (stereo partly shown) [Compound 26] | 250 to 2500
26 | C[C@@H](NC(=O)c1nc(-c2cnn(C)c2)cnc1N)c1nnc2ccc(Nc3cccc(Cl)c3)nn12 [Compound 27] | ≤ 250
27 | C[C@H](NC(=O)c1nc(-c2ccccc2)cnc1N)c1nnc2ccc(Nc3cccc(Cl)c3)nn12 [Compound 28] | 250 to 2500
28 | C[C@@H](NC(=O)c1nc(-c2cccs2)cnc1N)c1nnc2ccc(Nc3cccc(Cl)c3)nn12 [Compound 29] | ≤ 250
29 | Nc1ncc(-c2ccccc2)nc1C(=O)N[C@H](CO)c1nnc2ccc(Nc3cccc(Cl)c3)nn12 [Compound 30] | ≤ 250

Further lines, results first:

Row | Ki [nM] | Compound
30 | ≤ 250 | C[C@@H](NC(=O)c1nc(-c2ccsc2)cnc1N)c1nnc2ccc(Nc3cccc(Cl)c3)nn12 [Compound 31]
31 | ≤ 250 | C[C@@H](NC(=O)c1nc(-c2ccoc2)cnc1N)c1nnc2ccc(Nc3cccc(Cl)c3)nn12 [Compound 32]
32 | ≤ 250 | C[C@@H](NC(=O)c1nc(C2=CCCC2)cnc1N)c1nnc2ccc(Nc3cccc(Cl)c3)nn12 [Compound 33]
33 | 250 to 2500 | CC[C@@H](NC(=O)c1nc(-c2ccccc2)cnc1N)c1nnc2ccc(Nc3cccc(Cl)c3)nn12 [Compound 34]
34 | > 2500 | CC(C)[C@@H](NC(=O)c1nc(-c2ccccc2)cnc1N)c1nnc2ccc(Nc3cccc(Cl)c3)nn12 [Compound 35]
35 | ≤ 250 | C#Cc1cnc(N)c(C(=O)N[C@H](C)c2nnc3ccc(Nc4cccc(Cl)c4)nn23)n1 [Compound 36]
36 | ≤ 250 | C=Cc1cnc(N)c(C(=O)N[C@H](C)c2nnc3ccc(Nc4cccc(Cl)c4)nn23)n1 [Compound 37]
37 | ≤ 250 | C[C@@H](NC(=O)c1nc(C#N)cnc1N)c1nnc2ccc(Nc3cccc(Cl)c3)nn12 [Compound 38]
38 | ≤ 250 | C[C@@H](NC(=O)c1nc(C(N)=O)cnc1N)c1nnc2ccc(Nc3cccc(Cl)c3)nn12 [Compound 39]
39 | ≤ 250 | C[C@@H](NC(=O)c1nc(C2CCCC2)cnc1N)c1nnc2ccc(Nc3cccc(Cl)c3)nn12 [Compound 40]
40 | ≤ 250 | C[C@@H](NC(=O)c1nc(-c2cccnc2)cnc1N)c1nnc2ccc(Nc3cccc(Cl)c3)nn12 [Compound 41]
41 | ≤ 250 | C[C@@H](NC(=O)c1nc(-c2ccncc2)cnc1N)c1nnc2ccc(Nc3cccc(Cl)c3)nn12 [Compound 42]
42 | ≤ 250 | C[C@@H](NC(=O)c1nc(C#CCO)cnc1N)c1nnc2ccc(Nc3cccc(Cl)c3)nn12 [Compound 43]
43 | ≤ 250 | C[C@@H](NC(=O)c1nc(C#CCCO)cnc1N)c1nnc2ccc(Nc3cccc(Cl)c3)nn12 [Compound 44]
44 | 250 to 2500 | C[C@@H](NC(=O)c1nc(C#CC2(O)CCCC2)cnc1N)c1nnc2ccc(Nc3cccc(Cl)c3)nn12 [Compound 45]
45 | ≤ 250 | CCC(O)C#Cc1cnc(N)c(C(=O)N[C@H](C)c2nnc3ccc(Nc4cccc(Cl)c4)nn23)n1 (stereo partly shown) [Compound 46]
46 | ≤ 250 | CCN(CC)CC#Cc1cnc(N)c(C(=O)N[C@H](C)c2nnc3ccc(Nc4cccc(Cl)c4)nn23)n1 [Compound 47]
47 | 250 to 2500 | C[C@@H](NC(=O)c1nc(C#Cc2ccccc2)cnc1N)c1nnc2ccc(Nc3cccc(Cl)c3)nn12 [Compound 48]

Row | Ki [nM] | Compound
48 | 250 to 2500 | C[C@@H](NC(=O)c1nc(C#CCC2CCCC2)cnc1N)c1nnc2ccc(Nc3cccc(Cl)c3)nn12 [Compound 49]
49 | 250 to 2500 | CCCC#Cc1cnc(N)c(C(=O)N[C@H](C)c2nnc3ccc(Nc4cccc(Cl)c4)nn23)n1 [Compound 50]
50 | 250 to 2500 | C[C@@H](NC(=O)c1nc(C#CC(C)(C)C)cnc1N)c1nnc2ccc(Nc3cccc(Cl)c3)nn12 [Compound 51]
51 | 250 to 2500 | CCc1cnc(N)c(C(=O)N[C@H](C)c2nnc3ccc(Nc4cccc(Cl)c4)nn23)n1 [Compound 52]
52 | 250 to 2500 | C[C@@H](NC(=O)c1nc(C#Cc2ccccn2)cnc1N)c1nnc2ccc(Nc3cccc(Cl)c3)nn12 [Compound 53]
53 | ≤ 250 | Cc1n[nH]c(C)c1-c1cnc(N)c(C(=O)N[C@H](C)c2nnc3ccc(Nc4cccc(Cl)c4)nn23)n1 [Compound 54]
54 | ≤ 250 | C[C@@H](NC(=O)c1nc(-c2ccc(CN3CCCC3)cc2)cnc1N)c1nnc2ccc(Nc3cccc(Cl)c3)nn12 [Compound 55]
55 | 250 to 2500 | C[C@@H](NC(=O)c1nc(C#Cc2cccnc2)cnc1N)c1nnc2ccc(Nc3cccc(Cl)c3)nn12 [Compound 56]
56 | 250 to 2500 | C[C@@H](NC(=O)c1nc(C#Cc2ccncc2)cnc1N)c1nnc2ccc(Nc3cccc(Cl)c3)nn12 [Compound 57]
57 | ≤ 250 | CC(=O)Nc1cccc(-c2cnc(N)c(C(=O)N[C@H](C)c3nnc4ccc(Nc5cccc(Cl)c5)nn34)n2)c1 [Compound 58]
58 | 250 to 2500 | C[C@@H](NC(=O)c1nc(C#CC2CC2)cnc1N)c1nnc2ccc(Nc3cccc(Cl)c3)nn12 [Compound 61]
59 | ≤ 250 | C[C@@H](NC(=O)c1nc(-c2cnn(C3CCNCC3)c2)cnc1N)c1nnc2ccc(Nc3cccc(Cl)c3)nn12 [Compound 62]
60 | 250 to 2500 | C[C@@H](NC(=O)c1cc(-c2cnn(C)c2)cnc1N)c1nnc2sc(Nc3cccc(Cl)c3)nn12 [Compound 63]
61 | 250 to 2500 | C[C@@H](NC(=O)c1nc(-c2ccccc2)cnc1N)c1nnc2ccc(Cl)nn12 [Compound 64]
62 | ≤ 250 | C[C@@H](NC(=O)c1nc(-c2ccc(CN)cc2)cnc1N)c1nnc2ccc(Nc3cccc(Cl)c3)nn12 [Compound 65]
63 | ≤ 250 | C[C@@H](NC(=O)c1nc(-c2ccc(CN3CC[C@@H](O)C3)cc2)cnc1N)c1nnc2ccc(Nc3cccc(Cl)c3)nn12 [Compound 66]
64 | ≤ 250 | C[C@@H](NC(=O)c1nc(-c2ccc(CN3CC[C@H](O)C3)cc2)cnc1N)c1nnc2ccc(Nc3cccc(Cl)c3)nn12 [Compound 67]

From US8481538B2, “Heterocyclic inhibitors of c-Met and uses thereof” (Vertex Pharmaceuticals Incorporated, priority 2006, dated 2013)
